Measurements reported in patent US20240368096A1 (Enanta Pharmaceuticals, Inc., priority 2022, published 2024).

Each compound was assayed on HBV (assay: HBV infection in HepG2-NTCP cells (HBeAg AlphaLISA in supernatants)). Conditions: Hepatitis B virus, 192 h; HBV infection of HepG2-NTCP cells; HBeAg in supernatants at day 8 post infection; read-out: Cellular EC50.
Type: cell-based
How it was run: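 HepG2-NTCP A3 cells were pre-incubated 2 h with 3-fold serially diluted compounds, then infected with HBV at 2000 GE/cell with 4% PEG (0.5% DMSO final). After washing on day 1, cells stayed in 2.5% DMSO medium; supernatant HBeAg measured by AlphaLISA on day 8, EC50 versus DMSO controls.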

| Structure (SMILES) | EC50 |
| --- | --- |
| CCCC[C@@H]1CN(c2ccccc2)c2cc(Oc3ccc(Cl)cc3)c(-c3ccc(F)c(C(=O)O)c3)cc2S(=O)(=O)N1C [Example 418] | < 0.1 µM |
| CSc1cc2c(cc1-c1cccc(C(=O)O)c1)S(=O)(=O)N1CC3(CC3)CC1CN2c1ccccc1 (stereo not drawn) [Example 18, 3-(8-(methylthio)-5,5-dioxido-10-phenyl-1,10,11,11a-tetrahydro-3H-spiro[benzo[f]pyrrolo[1,2-b][1,2,5]thiadiazepine-2,1′-cyclopropan]-7-yl)benzoic acid] | 0.1 to 1 µM |
| CN1[C@H](COC(C)(C)C)CN(c2ccccc2)c2cc(Cl)c(-c3ccc(F)c(C(=O)O)c3)cc2S1(=O)=O [Example 101, (S)-5-(3-(tert-butoxymethyl)-7-chloro-2-methyl-1,1-dioxido-5-phenyl-2,3,4,5-tetrahydrobenzo[f][1,2,5]thiadiazepin-8-yl)-2-fluorobenzoic acid] | 0.1 to 1 µM |
| CC(C)C[C@@H]1CN(c2ccccc2)c2cc(Cl)c(-c3ccc(Cl)c(C(=O)O)c3)cc2S(=O)(=O)N1C [Example 60] | < 0.1 µM |
| CC(C)C[C@@H]1CN(C2CC2)c2cc(Oc3ccccc3F)c(-c3ccc(F)c(C(=O)O)c3)cc2S(=O)(=O)N1C [Example 471] | 0.1 to 1 µM |
| CSc1cc2c(cc1-c1cccc(C(=O)O)c1)S(=O)(=O)N1C[C@H](C(F)(F)F)C[C@@H]1CN2c1ccccc1 [Example 23] | > 1 µM |
| CN1[C@H](C2CCCCC2)CNc2cc(C3CCN(C(=O)OC(C)(C)C)CC3)c(-c3ccc(F)c(C(=O)O)c3)cc2S1(=O)=O [Example 584, (R)-5-(7-(1-(tert-butoxycarbonyl)piperidin-4-yl)-3-cyclohexyl-2-methyl-1,1-dioxido-2,3,4,5-tetrahydrobenzo[f][1,2,5]thiadiazepin-8-yl)-2-fluorobenzoic acid] | 0.1 to 1 µM |
| CC(C)C[C@@H]1CN(c2ccccc2)c2cc(Oc3cccc(C(F)(F)F)c3)c(-c3ccc(F)c(C(=O)O)c3)cc2S(=O)(=O)N1C [Example 425] | < 0.1 µM |
| CC(C)C[C@@H]1CN(c2ccccc2)c2cc(Oc3ccc(OC(F)(F)F)cc3)c(-c3ccc(F)c(C(=O)O)c3)cc2S(=O)(=O)N1C [Example 439] | < 0.1 µM |
| CCCC[C@@H]1CN(c2ccccc2)c2cc(F)c(-c3ccc(N(C)C)c(C(=O)O)c3)cc2S(=O)(=O)N1C [Example 523] | 0.1 to 1 µM |
| CC(C)[C@@H]1CN(c2ccccc2)c2cc(Cl)c(-c3cc(F)c(C(=O)O)s3)cc2S(=O)(=O)N1C [Example 120] | < 0.1 µM |
| CC(C)C[C@@H]1CN(c2ccccc2)c2cc(Oc3ccccc3OC(F)(F)F)c(-c3ccc(F)c(C(=O)O)c3)cc2S(=O)(=O)N1C [Example 437] | < 0.1 µM |
| CSc1cc2c(cc1-c1cccc(C(=O)O)c1)S(=O)(=O)N1C[C@@H](C(F)(F)F)C[C@H]1CN2c1ccccc1 [Example 24] | > 1 µM |
| CC(=O)NS(=O)(=O)c1cccc(-c2cc3c(cc2Cl)N(c2ccccc2)C[C@@H](CC(C)C)N(C)S3(=O)=O)c1 [Example 220, (R)—N-((3-(7-chloro-3-isobutyl-2-methyl-1,1-dioxido-5-phenyl-2,3,4,5-tetrahydrobenzo[f][1,2,5]thiadiazepin-8-yl)phenyl)sulfonyl)acetamide] | 0.1 to 1 µM |
| CC(C)C[C@@H]1CN(c2ccccc2)c2cc(Cl)c(-c3cccc(C(N)=O)c3)cc2S(=O)(=O)N1C [Example 167] | > 1 µM |
| CCCCC1CN(c2ccccc2)c2cc(CN3CCCCC3)c(-c3ccc(F)c(C(=O)O)c3)cc2S(=O)(=O)N1C (stereo not drawn) [Example 564] | 0.1 to 1 µM |
| CC(C)C[C@@H]1CN(c2ccccc2)c2cc(Oc3ccc(F)cc3)c(-c3ccc(F)c(C(=O)O)c3)cc2S(=O)(=O)N1C [Example 430] | < 0.1 µM |
| CN1[C@H](CC2CC2)CN(c2ccccc2)c2cc(Cl)c(-c3cncc(C(=O)O)c3)cc2S1(=O)=O [Example 74] | > 1 µM |
| CC(C)C[C@@H]1CN(c2ccccc2)c2cc(Cl)c(-c3ccc4[nH]ncc4c3)cc2S(=O)(=O)N1C [Example 181] | > 1 µM |
| CC(C)C[C@@H]1CN(c2ccccc2)c2cc(OC3COC3)c(-c3ccc(F)c(C(=O)O)c3)cc2S(=O)(=O)N1C [Example 443] | 0.1 to 1 µM |
| CCCC[C@H]1CN(c2ccccc2)c2cc(N(C)C)c(-c3cccc(C(=O)O)c3)cc2S(=O)(=O)N1C [Example 542] | > 1 µM |
| CC(C)CC1CN(c2ccccc2)c2cc(Cl)c(-c3cc(F)cc(C(=O)O)c3)cc2S(=O)(=O)N1C (stereo not drawn) [Example 36] | 0.1 to 1 µM |

Next, values leading:

| EC50 | Structure (SMILES) |
| --- | --- |
| 0.1 to 1 µM | CN1[C@H](C2CCCCC2)CN(c2cnccn2)c2cc(Cl)c(-c3ccc(F)c(C(=O)O)c3)cc2S1(=O)=O [Example 289] |
| < 0.1 µM | CC(C)COC(=O)Nc1c(Cl)cc(-c2cc3c(cc2Cl)N(c2ccccc2)C[C@@H](C2CCCCC2)N(C)S3(=O)=O)cc1C(=O)O [Example 279] |
| 0.1 to 1 µM | CN1[C@H](C2CCCCC2)CN(c2ccccc2)c2cc(Cl)c(-c3cccc(C(=O)O)c3O)cc2S1(=O)=O [Example 148] |
| < 0.1 µM | CN1[C@H](C2CCCCC2)CN(c2ccccc2)c2cc(Cl)c(-c3ccc(NC(=O)OCc4ccccc4)c(C(=O)O)c3)cc2S1(=O)=O [Example 236] |
| 0.1 to 1 µM | CN1[C@H](C2CCCCC2)CN(c2cc(F)cc(F)c2F)c2cc(Cl)c(-c3ccc(F)c(C(=O)O)c3)cc2S1(=O)=O [Example 299] |
| < 0.1 µM | CN1[C@H](C2CCCCC2)CN(c2ccccc2)c2cc(Cl)c(-c3cc(Cl)c(C(=O)O)s3)cc2S1(=O)=O [Example 117] |
| < 0.1 µM | CN1[C@H](C2CCCCC2)CN(c2ccccc2)c2cc(Cl)c(-c3cc(NC(=O)OCC(C)(C)C)c(C(=O)O)s3)cc2S1(=O)=O [Example 255] |
| < 0.1 µM | CN1[C@H](C2CCCCC2)CN(c2ccccc2)c2cc(OCc3ccco3)c(-c3ccc(F)c(C(=O)O)c3)cc2S1(=O)=O [Example 334] |
| < 0.1 µM | CN1[C@H](C2CCC2)CN(c2ccccc2)c2cc(Oc3ccccc3F)c(-c3ccc(F)c(C(=O)O)c3)cc2S1(=O)=O [Example 463] |
| 0.1 to 1 µM | CN1[C@H](C2CC2)CN(c2ccccc2)c2cc(Cl)c(-c3ccc(F)c(C(=O)O)c3)cc2S1(=O)=O [Example 64, (R)-5-(7-chloro-3-cyclopropyl-2-methyl-1,1-dioxido-5-phenyl-2,3,4,5-tetrahydrobenzo[f][1,2,5]thiadiazepin-8-yl)-2-fluorobenzoic acid] |
| < 0.1 µM | COCCOc1cc2c(cc1-c1ccc(NC(=O)OCc3ccccc3)c(C(=O)O)c1)S(=O)(=O)N(C)[C@H](C1CCCCC1)CN2c1ccccc1 [Example 478, (R)-2-(((benzyloxy)carbonyl)amino)-5-(3-cyclohexyl-7-(2-methoxyethoxy)-2-methyl-1,1-dioxido-5-phenyl-2,3,4,5-tetrahydrobenzo[f][1,2,5]thiadiazepin-8-yl)benzoic acid] |
| < 0.1 µM | CCCCCOC(=O)Nc1cc(-c2cc3c(cc2Cl)N(c2ccccc2)C[C@@H](C2CCCCC2)N(C)S3(=O)=O)sc1C(=O)O [Example 247] |
| < 0.1 µM | CN1[C@H](C2CCCCC2)CN(c2ccccc2)c2cc(OCc3ccccc3)c(-c3ccc(F)c(C(=O)O)c3)cc2S1(=O)=O [Example 332, (R)-5-(7-(benzyloxy)-3-cyclohexyl-2-methyl-1,1-dioxido-5-phenyl-2,3,4,5-tetrahydrobenzo[f][1,2,5]thiadiazepin-8-yl)-2-fluorobenzoic acid] |
| < 0.1 µM | COc1cc(F)cc(Oc2cc3c(cc2-c2ccc(F)c(C(=O)O)c2)S(=O)(=O)N(C)[C@H](C2CCCCC2)CN3c2ccccc2)c1 [Example 409] |
| < 0.1 µM | CN1[C@H](C2CCCCC2)CN(c2ccccc2)c2cc(Cl)c(-c3cc(NC(=O)OCC(C)(F)F)c(C(=O)O)s3)cc2S1(=O)=O [Example 244] |
| > 1 µM | CO[C@@H](C)[C@@H]1CN(c2ccccc2)c2cc(Cl)c(-c3ccc(F)c(C(=O)O)c3)cc2S(=O)(=O)N1C [Example 88, 5-((S)-7-chloro-3-((S)-1-methoxyethyl)-2-methyl-1,1-dioxido-5-phenyl-2,3,4,5-tetrahydrobenzo[f][1,2,5]thiadiazepin-8-yl)-2-fluorobenzoic acid] |
| 0.1 to 1 µM | CN1[C@H](C2CCCCC2)CN(c2ccccc2)c2cc(Cl)c(-c3cc(C(=O)O)cc(C(F)(F)F)c3)cc2S1(=O)=O [Example 142, (R)-3-(7-chloro-3-cyclohexyl-2-methyl-1,1-dioxido-5-phenyl-2,3,4,5-tetrahydrobenzo[f][1,2,5]thiadiazepin-8-yl)-5-(trifluoromethyl)benzoic acid] |
| 0.1 to 1 µM | CN1[C@H](C2CCCCC2)CN(c2ccccc2)c2cc(Cl)c(-c3ccc(Cl)c(S(N)(=O)=O)c3)cc2S1(=O)=O [Example 200] |
| 0.1 to 1 µM | CN1[C@H](C2CCCCC2)CN(c2ccccc2)c2cc(Cl)c(-c3nc(C(=O)O)co3)cc2S1(=O)=O [Example 131, (R)-2-(7-chloro-3-cyclohexyl-2-methyl-1,1-dioxido-5-phenyl-2,3,4,5-tetrahydrobenzo[f][1,2,5]thiadiazepin-8-yl)oxazole-4-carboxylic acid] |
| < 0.1 µM | CC(C)CCCCOc1cc2c(cc1-c1ccc(F)c(C(=O)O)c1)S(=O)(=O)N(C)[C@H](C1CCCCC1)CN2c1ccccc1 [Example 361] |
| 0.1 to 1 µM | CN1[C@H](C2CCCCC2)CN(c2ccccc2)c2cc(OCc3cccc(OC(F)(F)F)c3)c(-c3cc(F)c(C(=O)O)s3)cc2S1(=O)=O [Example 511] |
| < 0.1 µM | CN1[C@H](C2CCCCC2)CN(c2ccccc2)c2cc(OCC3CCN(C(=O)OC(C)(C)C)CC3)c(-c3ccc(F)c(C(=O)O)c3)cc2S1(=O)=O [Example 366] |
| 0.1 to 1 µM | CN1[C@H](C2CCCCC2)CN(c2ccccc2)c2cc(C34CC(C3)C4)c(-c3ccc(F)c(C(=O)O)c3)cc2S1(=O)=O [Example 587] |
| 0.1 to 1 µM | CN1[C@H](C2CCC2)CN(c2ccccc2)c2cc(Cl)c(-c3ccc(O)c(C(=O)O)c3)cc2S1(=O)=O [Example 159] |
| 0.1 to 1 µM | COCC(C)(C)COC(=O)Nc1cc(-c2cc3c(cc2Cl)N(c2ccccc2)C[C@@H](C2CCCCC2)N(C)S3(=O)=O)sc1C(=O)O [Example 260] |
| < 0.1 µM | CN1[C@H](C2CCCCC2)CN(c2ccccc2)c2cc(OC3CCCC3)c(-c3ccc(F)c(C(=O)O)c3)cc2S1(=O)=O [Example 373] |
